This is an account of results in patent US20240067617A1 (Albireo AB, priority 2022, published 2024).

The structures appear in SMILES notation. Some results are limits rather than exact numbers.

Experiment [1] deals with T1, hIBAT (Homo sapiens, UniProt Q12908).
T1 construct: expressed in transfected cells; kept under Puromycin selection
T1 sequence (Q12908 1-348): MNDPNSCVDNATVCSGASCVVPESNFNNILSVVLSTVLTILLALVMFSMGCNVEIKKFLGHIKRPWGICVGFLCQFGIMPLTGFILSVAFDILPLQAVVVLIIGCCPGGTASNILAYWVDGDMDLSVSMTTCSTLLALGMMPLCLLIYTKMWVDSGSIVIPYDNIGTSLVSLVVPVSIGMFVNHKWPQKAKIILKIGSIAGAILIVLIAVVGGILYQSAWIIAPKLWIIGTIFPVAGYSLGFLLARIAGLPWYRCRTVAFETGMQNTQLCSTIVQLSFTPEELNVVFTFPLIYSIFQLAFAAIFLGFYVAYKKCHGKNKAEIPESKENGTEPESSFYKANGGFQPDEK
The experiment in a line: IBAT (h/m) assay: 3H-taurocholic acid uptake in human IBAT-overexpressing cells. Type of experiment: cell-based. The settings on record: 0.25 μM 3H-taurocholic acid + 5 μM cold taurocholic acid, 20 minutes at 37° C., highest test concentration 10 μM. How it is done: IBAT (h/m) Assay Protocol
10,000 cells (Human or Mouse IBAT-overexpressing cells) were seeded in 96-wells plate (Corning CLS3809) in 200 μL MEM-alpha medium (Gibco 12571-063) supplemented with 10% FBS (Gibco 10438026) containing Puromycin (Gibco A1113803) (10 μg/mL) and incubated at 37° C. in 5% CO2 for 48 hours. After incubation, media was decanted from the wells and cells were washed two times with 300 μL of basal MEM-alpha medium (FBS-free). After decanting basal MEM-alpha medium each time, plates were tapped against paper towel to ensure maximum removal of residual media. Test inhibitor dilutions (highest test concentration being 10 μM, 3-fold serial dilution, 10 points) prepared in DMSO (Sigma D2650) were added in incubation mix (maintaining 0.2% final DMSO concentration) containing 0.25 μM 3H-taurocholic acid (ARC ART-1368) and 5 μM of cold taurocholic acid (Sigma T4009). 50 μL of incubation mix containing test inhibitors was then added to the wells (in duplicate) and the plates were incubated for 20 minutes in a CO2 incubator at 37° C. After incubation, the reaction was stopped by keeping the plates on ice water mix for 2-3 minutes and then the incubation mix was aspirated completely from the wells. The wells were washed two times with 250 μL of chilled unlabelled 1 mM taurocholic acid dissolved in HEPES (Gibco 15630080)-buffered (10 mM) HBSS (Gibco 14175079) (pH 7.4). The plates were tapped against a paper towel after every wash to ensure maximum removal of blocking buffer.
100 μL of MicroScint-20 (PerkinElmer 6013621) was added to the wells and kept overnight at RT before reading the plates in TopCount NXT™ Microplate Scintillation and Luminescence Counter from PerkinElmer under 3H Test protocol (set at 120 seconds reading time per well).
(§1) Preparation of Test Compound Dilutions
(§2) All test compounds were provided in powder form at RT. 10 mM DMSO stocks of the test compounds were prepared, aliquoted and stored at −20° C. From the 10 mM DMSO stock of the compounds, a 3-fold serial dilution in DMSO was prepared to get a total of 10 dilutions of the test compounds. 0.5 μL of this dilution in DMSO was added to 250 μL of FBS-free basal media containing 3H-taurocholic acid and cold taurocholic acid to prepare the incubation mixture.

Experiment [2] has as its target T2, hLBAT (Homo sapiens, UniProt Q14973).
T2 construct: expressed in transfected cells; kept under Geneticin selection
T2 sequence (Q14973 1-349): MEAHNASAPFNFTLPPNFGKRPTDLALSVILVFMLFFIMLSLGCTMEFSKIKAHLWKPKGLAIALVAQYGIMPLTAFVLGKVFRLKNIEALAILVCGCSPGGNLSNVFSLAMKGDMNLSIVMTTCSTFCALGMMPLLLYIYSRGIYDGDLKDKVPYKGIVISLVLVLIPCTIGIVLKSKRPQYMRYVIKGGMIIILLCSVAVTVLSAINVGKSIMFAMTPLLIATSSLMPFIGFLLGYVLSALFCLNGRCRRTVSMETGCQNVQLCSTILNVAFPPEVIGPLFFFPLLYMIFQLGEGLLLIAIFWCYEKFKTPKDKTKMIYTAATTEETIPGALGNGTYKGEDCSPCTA
The experiment in a line: LBAT (h/m) assay: 3H-taurocholic acid uptake in human LBAT-overexpressing cells. Type of experiment: cell-based. The settings on record: 0.3 μM 3H-taurocholic acid + 7.5 μM cold taurocholic acid, 20 minutes at 37° C. On the procedure:
LBAT (h/m) Assay Protocol
20,000 cells (Human or Mouse LBAT-overexpressing cells) were seeded in 96-wells plate (Corning CLS3809) in 100 μL MEM-alpha medium (Gibco 12571-063) supplemented with 10% FBS (Gibco 10438026) containing Geneticin (Gibco 10131-027) (1 mg/mL) and incubated at 37° C. in 5% CO2 for 24 hours. After incubation, media was decanted from the wells and cells were washed two times with 300 μL of basal MEM-alpha medium (FBS-free). After decanting basal MEM-alpha medium each time, plates were tapped against paper towel to ensure maximum removal of residual media. For human LBAT, incubation mix was prepared by adding test inhibitor dilutions (3-fold serial dilution in DMSO (Sigma D2650), 10 points) in MEM-alpha (without FBS) containing 0.3 μM 3H-taurocholic acid (ARC ART-1368) and 7.5 μM cold taurocholic acid (Sigma T4009) (maintaining 0.2% final DMSO concentration). For mouse LBAT, incubation mix was prepared by adding test inhibitor dilutions (3-fold serial dilution in DMSO, 10 points) in MEM-alpha (without FBS) containing 0.3 μM 3H-taurocholic acid and 25 μM cold taurocholic acid maintaining 0.2% final DMSO concentration). 50 μL of incubation mix containing test inhibitors was then added to the wells (in duplicate) and the plates were incubated for 20 minutes in a CO2 incubator at 37° C. After incubation, the reaction was stopped by keeping the plates on ice water mix for 2-3 minutes and then the incubation mix was aspirated completely from the wells. The wells were washed two times with 250 μL of chilled unlabelled 1 mM taurocholic acid dissolved in HEPES (Gibco 15630080)-buffered (10 mM) HBSS (Gibco 14175079) (pH 7.4). The plates were tapped against a paper towel after every wash to ensure maximum removal of blocking buffer.
100 μL of MicroScint-20 (PerkinElmer 6013621) was added to the wells and kept overnight at RT before reading the plates in TopCount NXT™ Microplate Scintillation and Luminescence Counter from PerkinElmer under 3H Test protocol (set at 120 seconds reading time per well, with normal plate orientation).
as §1, §2

Broadly, the IC50 is the point on the concentration scale where inhibition reaches its midpoint. As for `CCCCC1(CC)CN(c2ccc(F)cc2)c2cc(OC)c(CSCC(=O)O)cc2S(=O)(=O)C1` (racemic) [Example 39, 2-(((3-butyl-3-ethyl-5-(4-fluorophenyl)-7-methoxy-1,1-dioxido-2,3,4,5-tetrahydro-1,5-benzothiazepin-8-yl)methyl)thio)acetic acid], the figures for the IC50 in experiment [1] and in experiment [2] were 2.5 nM and above 3330 nM, respectively.
On to `CCCCC1(C)CN(c2ccccc2)c2cc(OC)c(CSC(C)(C)C(=O)O)cc2S(=O)(=O)C1` (racemic) [Example 41, 2-(((3-butyl-7-methoxy-3-methyl-1,1-dioxido-5-phenyl-2,3,4,5-tetrahydro-1,5-benzothiazepin-8-yl)methyl)thio)-2-methylpropanoic acid], for which the figures for the half-maximal inhibitory concentration (IC50) in experiment [1] and in experiment [2] were above 1110 nM and 134 nM, respectively.
For `CCCCC1(CC)CN(c2ccccc2)c2cc(OC)c(CSCC(=O)O)cc2S(=O)(=O)N1` (racemic) [Example 44, 2-(((3-butyl-3-ethyl-7-methoxy-1,1-dioxido-5-phenyl-2,3,4,5-tetrahydro-1,2,5-benzothiadiazepin-8-yl)methyl)thio)acetic acid], in that order: 5.2 nM and above 1000 nM.
On to `CCCCC1(CC)CN(c2ccccc2)c2cc(S(C)(=O)=O)c(CSCC(=O)O)cc2S(=O)(=O)N1` (racemic) [Example 47, 2-(((3-butyl-3-ethyl-7-(methylsulfonyl)-1,1-dioxido-5-phenyl-2,3,4,5-tetrahydro-1,2,5-benzothiadiazepin-8-yl)methyl)thio)acetic acid], for which the values for the IC50 in experiment [1] and in experiment [2] were 14 nM and above 1000 nM, respectively.
In the case of `CCCCC1(CC)CN(c2ccccc2)c2cc(SC)c(CSCC(=O)O)cc2S(=O)(=O)C1` (single isomer, unassigned) [2, enantiomer 2], the IC50 is 2.8 nM in experiment [1] and 3150 nM in experiment [2].
For `CCCCC1(C)CN(c2ccccc2)c2cc(SC)c(CSCC(=O)O)cc2S(=O)(=O)C1` (single isomer, unassigned) [5, enantiomer 2], in that order: 44 nM and 4400 nM.
Take `CCCCC1(CC)CN(c2ccc(F)cc2)c2cc(SC)c(CSCC(=O)O)cc2S(=O)(=O)C1` (single isomer, unassigned) [7, enantiomer 2]: the values for the IC50 in experiment [1] and in experiment [2] were 2.8 nM and 4840 nM, respectively.
For `CCCCC1(CC)CN(c2ccccc2)c2cc(SC)c(CSCC(=O)O)cc2S(=O)(=O)N1` (single isomer, unassigned) [10, enantiomer 1], in that order: 0.3 nM and above 3330 nM.
Consider `CCCCC1CN(c2ccccc2)c2cc(SC)c(CSCC(=O)O)cc2S(=O)(=O)N1C` (single isomer, unassigned) [12, enantiomer 1], for which the IC50 in experiment [1] is 115 nM; in experiment [2], above 10000 nM.
For `CCCCC1CN(c2ccccc2)c2cc(SC)c(CSCC(=O)O)cc2S(=O)(=O)N1C` (single isomer, unassigned) [12, enantiomer 2], in that order: 116 nM and 34 nM.
`CCCCC1(CC)CN(c2ccccc2)c2cc(OC)c(CSCC(=O)O)cc2S(=O)(=O)C1` (single isomer, unassigned) [14, enantiomer 1]: the half-maximal inhibitory concentration (IC50) in experiment [1] was 1.1 nM; in experiment [2], above 1000 nM.
For `CCCCC1(CC)CN(c2ccccc2)c2cc(OC)c(CSCC(=O)O)cc2S(=O)(=O)C1` (single isomer, unassigned) [14, enantiomer 2], in that order: 64 nM and above 1000 nM.
Turning to `CCCCC1(CC)CN(c2ccc(F)cc2)c2cc(SC)c(CSC(C)(C)C(=O)O)cc2S(=O)(=O)C1` (single isomer, unassigned) [16, enantiomer 1], the figures for the IC50 in experiment [1] and in experiment [2] were 10 nM and 164 nM, respectively.
With `CCCCC1(CC)CN(c2ccc(F)cc2)c2cc(SC)c(CSC(C)(C)C(=O)O)cc2S(=O)(=O)C1` (single isomer, unassigned) [16, enantiomer 2], the IC50 in experiment [1] is 659 nM; in experiment [2], 220 nM.
On to `CCCCC1(C)CN(c2ccccc2)c2cc(SC)c(CSC(C)(C)C(=O)O)cc2S(=O)(=O)C1` (single isomer, unassigned) [19, enantiomer 1], for which the results for the IC50 in experiment [1] and in experiment [2] were 192 nM and 194 nM, respectively.
Consider `CCCCC1(C)CN(c2ccccc2)c2cc(SC)c(CSC(C)(C)C(=O)O)cc2S(=O)(=O)C1` (single isomer, unassigned) [19, enantiomer 2], for which the 50% inhibitory concentration (IC50) in experiment [1] is 1870 nM; in experiment [2], 176 nM.
For `CCCCC1(CC)CN(c2ccccc2)c2cc(SC)c(CSCC(=O)O)cc2S(=O)(=O)N1C` (single isomer, unassigned) [21, enantiomer 1], in that order: above 243 nM and 3310 nM.
For `CCCCC1(CC)CN(c2ccccc2)c2cc(SC)c(CSCC(=O)O)cc2S(=O)(=O)N1C` (single isomer, unassigned) [21, enantiomer 2], in that order: above 554 nM and 1900 nM.
In the same order, the values of `CCCCC1(CC)CN(c2ccccc2)c2cc(OC)c(CSC(C)(C)C(=O)O)cc2S(=O)(=O)C1` (single isomer, unassigned) [26, enantiomer 1] are 195 nM and 104 nM.
Take `CCCCC1(CC)CN(c2ccccc2)c2cc(OC)c(CSC(C)(C)C(=O)O)cc2S(=O)(=O)C1` (single isomer, unassigned) [26, enantiomer 2]: the IC50 was found to be 5110 nM in experiment [1] and 245 nM in experiment [2].
Regarding `CCCCC1(C)CN(c2ccccc2)c2cc(OC)c(CSCC(=O)O)cc2S(=O)(=O)C1` (single isomer, unassigned) [28, enantiomer 1], the values for the 50% inhibitory concentration (IC50) in experiment [1] and in experiment [2] were 7.7 nM and above 10000 nM, respectively.
In the same order, the values of `CCCCC1(C)CN(c2ccccc2)c2cc(OC)c(CSCC(=O)O)cc2S(=O)(=O)C1` (single isomer, unassigned) [28, enantiomer 2] are 532 nM and above 10000 nM.
Regarding `CCCCC1CN(c2ccc(F)cc2)c2cc(OC)c(CSCC(=O)O)cc2S(=O)(=O)N1C` (single isomer, unassigned) [30, enantiomer 1], the IC50 in experiment [1] and in experiment [2] was above 10000 nM each time.
